Measurements published in patent publication US7776847B2, “Benzisothiazoles useful for treating or preventing HCV infection” (priority 2005, dated 2010).

Tested on: HCV replicon
Assay: HCV replicon luciferase reporter assay
Format: cell-based
Conditions: Hepatitis C virus, Table 5; read-out: IC50
Method: The inhibitory activity of certain exemplary compounds of the invention was confirmed using an HCV replicon assay. The HCV replicon can include such features as the HCV IRES, the HCV 3′ untranslated region, selected HCV genes encoding HCV polypeptides, selectable markers, and a reporter gene such as luciferase, GFP, etc. In the assay, actively dividing replicon-comprising cells were seeded at a density of between about 5,000 and 7,500 cells/well onto 96 well plates (about 90 μl of cells per well) and incubated at 37° C. and 5% CO2 for 24 hours. Then, the test compound (in a volume of about 10 μL) was added at various concentrations to each well and the cells were incubated for an additional 24-48 hours. The cells were harvested, and HCV replication or translation was monitored via a reporter assay, e.g., a luciferase reporter assay. The media was aspirated from each cell and Bright-Glo ([…].) luciferase assay reagents were added to each well according to the manufacturer's instructions. In this assay, the amount of test compound that yielded a 50% reduction in luciferase activity (IC50) was determined.

Q: Which IC50 does the source give for `COc1ccc(-c2ccc(C(=O)NCCCNc3nsc4ccc(-c5cccc(OC)c5F)cc34)cc2)cc1` [Compound 407, N-(3-(5-(2-fluoro-3-methoxyphenyl)benzo[d]isothiazol-3-ylamino)propyl)-4′-methoxybiphenyl-4-carboxamide] here?
A: Its IC50 is under 5 µM.

Q: Which IC50 does the source give for `CCCCc1ccc(C(=O)NCCCNC2=NS(=O)(=O)c3ccccc32)cc1` [Compound 322, 4-butyl-N-{3-[(1,1-dioxido-1,2-benzisothiazol-3-yl)amino]propyl}benzamide] here?
A: Its IC50 is over 5 µM.

Q: Which IC50 does the source give for `O=C(NCCCNc1nsc2ccccc12)c1ccc(Br)nc1` [Compound 443, N-(3-(benzo[d]isothiazol-3-ylamino)propyl)-6-bromonicotinamide] here?
A: Its IC50 is under 5 µM.

Q: How did the IC50 turn out when `CCOc1ccc(C)c(-c2cccc(C(=O)NCCCNc3nsc4ccccc34)c2)c1` [Compound 381, N-(3-(benzo[d]isothiazol-3-ylamino)propyl)-3′-ethoxy-6′-methylbiphenyl-3-carboxamide] was run?
A: The IC50 was under 5 µM.

Q: How did the IC50 turn out when `O=S(=O)(NCCCNc1nsc2ccccc12)c1ccc(F)c(F)c1F` [Compound 250, N-(3-(benzo[d]isothiazol-3-ylamino)propyl)-2,3,4-trifluorobenzenesulfonamide] was run?
A: Its IC50 is under 5 µM.

Q: `COc1ccc(NS(=O)(=O)c2ccc(CNCCCNc3nsc4ccccc34)cc2)cc1` [Compound 258, 4-((3-(benzo[d]isothiazol-3-ylamino)propylamino)methyl)-N-(4-methoxyphenyl)benzenesulfonamide] was tested. Which IC50 did it give?
A: Its IC50 is under 5 µM.

Q: With `COc1ccc(CNS(=O)(=O)c2ccc3snc(NCCCNC(=O)c4ccc(-c5ccc(OC)cc5)cc4)c3c2)cc1` [Compound 515, 4′-methoxy-N-(3-(5-(N-(4-methoxybenzyl)sulfamoyl)benzo[d]isothiazol-3-ylamino)propyl)biphenyl-4-carboxamide] as the compound, how does the IC50 read?
A: The IC50 was over 5 µM.

Q: With `O=C(NCCCNc1nsc2ccccc12)c1cccc(I)c1` [Compound 386, N-(3-(benzo[d]isothiazol-3-ylamino)propyl)-3-iodobenzamide] as the compound, how does the IC50 read?
A: The IC50 was under 5 µM.

Q: How did the IC50 turn out when `c1ccc2c(NCCCNCc3ccc(N4CCCC4)cc3)nsc2c1` [Compound 338, N^1-(benzo[d]isothiazol-3-yl)-N^3-(4-(pyrrolidin-1-yl)benzyl)propane-1,3-diamine] was run?
A: The IC50 was under 5 µM.

Q: For `COc1ccc(C(=O)NCCNc2nsc3ccccc23)cc1` [Entry 14, N-(2-(Benzo[d]isothiazol-3-ylamino)ethyl)-4-methoxybenzamide], which IC50 is on record?
A: The IC50 was under 5 µM.

Q: `O=C(NCCCNc1nsc2ccccc12)c1ccc(NCc2ccccn2)cc1` [Compound 297, N-(3-(benzo[d]isothiazol-3-ylamino)propyl)-4-(pyridin-2-ylmethylamino)benzamide] was tested. Which IC50 did it give?
A: Its IC50 is under 5 µM.

Q: With `CC(C)[C@H](N)C(=O)NCCNc1nsc2ccccc12` [Entry 75, (S)-2-Amino-N-(2-(benzo[d]isothiazol-3-ylamino)ethyl)-3-methylbutanamide] as the compound, how does the IC50 read?
A: Its IC50 is over 5 µM.

Q: How did the IC50 turn out when `COc1ccc(-c2ccccc2CNCCCNc2nsc3ccccc23)cc1` [Compound 312, N^1-(benzo[d]isothiazol-3-yl)-N^3-((4′-methoxybiphenyl-2-yl)methyl)propane-1,3-diamine] was run?
A: Its IC50 is under 5 µM.

Q: With `CCCOc1cc(F)ccc1-c1cccc(C(=O)NCCCNc2nsc3ccccc23)c1` [Compound 383, N-(3-(benzo[d]isothiazol-3-ylamino)propyl)-4′-fluoro-6′-propoxybiphenyl-3-carboxaimde] as the compound, how does the IC50 read?
A: The IC50 was under 5 µM.

Q: `COc1ccc(-c2cccc(C(=O)NCCCNc3nsc4ccccc34)c2)cn1` [Compound 388, N-(3-(benzo[d]isothiazol-3-ylamino)propyl)-3-(6-methoxypyridin-3-yl)benzamide] was tested. Which IC50 did it give?
A: Its IC50 is under 5 µM.

Q: With `CCCCc1ccc(C(=O)NC(CNc2nsc3ccccc23)C(=O)O)cc1` (centres unmarked) [Compound 280, 3-(benzo[d]isothiazol-3-ylamino)-2-(4-butylbenzamido)propanoic acid] as the compound, how does the IC50 read?
A: Its IC50 is over 5 µM.

Q: Which IC50 does the source give for `COc1ccc(-c2ccc(C(=O)NCCCNc3nsc4cccc(S(=O)(=O)NC(C)(C)C)c34)cc2)cc1` [Compound 398, N-(3-(4-(N-tert-butylsulfamoyl)benzo[d]isothiazol-3-ylamino)propyl)-4′-methoxybiphenyl-4-carboxamide] here?
A: The IC50 was over 5 µM.
